This passage reports control efficacy results from EP4800008A1, “PYRAZOLE DERIVATIVE, OR ACCEPTABLE SALT THEREOF OR N-OXIDE THEREOF, AGRICULTURAL AND HORTICULTURAL CHEMICAL, AND INDUSTRIAL MATERIAL PROTECTANT” (Kureha Corporation, priority 2023, dated 2025).

One test concerns Zymoseptoria tritici. As to the kind of experiment: Wheat leaf blight control efficacy test. It is filed as in vivo. The following applies: 12.5 ppm, as Test Example 4.
Another test deals with Botrytis cinerea. As to the kind of experiment: Cucumber gray mold control efficacy test. It counts as in vivo. Conditions: as Test Example 2.

The compound `CON(C(=O)c1cn(C)nc1C(F)F)C(C)Cc1ccc(C#CCOCc2ccccc2)cc1Cl` (stereo not drawn) [Compound I-18] gave a control efficacy in the test on Zymoseptoria tritici of 100%.
Regarding `CON(C(=O)c1cn(C)nc1C(F)F)C(C)Cc1c(Cl)cc(Cl)cc1Cl` (stereo not drawn) [Control compound C], the control efficacy in the test on Botrytis cinerea (12.5 ppm) worked out at 65%; in the test on Botrytis cinerea (100 ppm), 97%.
